Assay [1] deals with HPDE (immortalized pancreatic duct cell line). Kind of assay: Drug combination viability screen (ATPlite, 72 h).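 Also: area under vehicle-normalized viability curve scaled 0 to 100 percent.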 The format is cell-based, human. The settings on record: single agent, HPDE. As to the method: Cell viability was assessed by measuring ATP levels to indicate metabolic activity.
Afterward, small amounts were transferred to 384-well intermediate plates (Greiner Bio-One GmbH, Germany). […] For drug combination screening, 1000 to 5000 cells were seeded into 384-well plates (CulturPlate™, Perkin Elmer, MA, USA) using a Multidrop™ Combi Reagent Dispenser (Thermo Scientific, MA, USA) in 50 µl medium per well 24 h prior to drug treatment (seeding densities see Appendix Table S1). […] The final DMSO concentration in each well was 0.2%. […] Eight wells per plate without library drug served as negative controls, and sixteen wells per plate containing 5 µM Staurosporine served as positive controls. Control plates not containing any drug were used to correct for incubation effects, and data quality was assessed by calculation of Z-prime of positive and negative controls according to1 Z-prime=1−3SDpos+3SDneg/[…] where SD is the standard deviation. […] Dose–response curves from the experimental and hypothetical data were compared, and shifts in AUC were used to describe combination effects (AUC∆ = AUChypothetical − AUCexperimental). […] Only combinations with R^2 > 0.8 in both conditions were considered in the synergy analysis.
For orientation: ATP-based viability assays read luminescence as a measure of living cells.

Assay [2] deals with AsPC-1. Put plainly: cells. More on the design: ATPlite luminescence viability of PDAC cell lines, 11-dose single-agent curves, 4-parameter fit. As to conditions: Homo sapiens, ASPC1, 72 h, read-out: EC50 [nM]. In short, it runs like this: (§1)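 Drug-combination screening used cells plated at 1000 to 5000 per well one day before treatment. Final DMSO was 0.2%. Each plate held untreated negative-control wells and 5 µM staurosporine positive-control wells.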

Assay [3] relates to BxPC-3. Kind of assay: cells. More on the design: ATPlite luminescence viability of PDAC cell lines, 11-dose single-agent curves, 4-parameter fit. The settings on record: Homo sapiens, BXPC-3, 72 h, read-out: EC50 [nM]. A digest of the protocol: as §1
Assay [4] relates to Capan-1. Put plainly: cells. Also on record: ATPlite luminescence viability of PDAC cell lines, 11-dose single-agent curves, 4-parameter fit. As to conditions: Homo sapiens, CAPAN-1, 72 h, read-out: EC50 [nM]. A digest of the protocol:
as §1

Assay [5] has as its system Colo-357. Put plainly: cells. More on the design: ATPlite luminescence viability of PDAC cell lines, 11-dose single-agent curves, 4-parameter fit. As to conditions: Homo sapiens, COLO357, 72 h, read-out: EC50 [nM]. In short, it runs like this:
as §1

The subject of assay [6] is Dan-G. Kind of assay: cells. The settings on record: 72 h, read-out: EC50 [nM]. More on the design: ATPlite luminescence viability of PDAC cell lines, 11-dose single-agent curves, 4-parameter fit. A digest of the protocol:
as §1

In assay [7] the test system is FAMPAC. Kind of assay: cells. Also on record: ATPlite luminescence viability of PDAC cell lines, 11-dose single-agent curves, 4-parameter fit. The settings on record: 72 h, read-out: EC50 [nM]. In short, it runs like this:
as §1

The subject of assay [8] is HPDE. Put plainly: cells. The settings on record: HPDE, 72 h, read-out: EC50 [nM]. More on the design: ATPlite luminescence viability of PDAC cell lines, 11-dose single-agent curves, 4-parameter fit. In short, it runs like this: as §1
Assay [9] deals with HuP-T4. Kind of assay: cells. The settings on record: Homo sapiens, HuP-T4, 72 h, read-out: EC50 [nM]. Also on record: ATPlite luminescence viability of PDAC cell lines, 11-dose single-agent curves, 4-parameter fit. A digest of the protocol:
as §1

In assay [10] the test system is MiaPaCa-2. Put plainly: cells. Also on record: ATPlite luminescence viability of PDAC cell lines, 11-dose single-agent curves, 4-parameter fit. The settings on record: Homo sapiens, MIA PaCa-2, 72 h, read-out: EC50 [nM]. A digest of the protocol: as §1
In assay [11] the test system is PSN-1. Kind of assay: cells. Also on record: ATPlite luminescence viability of PDAC cell lines, 11-dose single-agent curves, 4-parameter fit. As to conditions: Homo sapiens, PSN1, 72 h, read-out: EC50 [nM]. A digest of the protocol:
as §1

The test system of assay [12] is PaTu-8988-T. Kind of assay: cells. More on the design: ATPlite luminescence viability of PDAC cell lines, 11-dose single-agent curves, 4-parameter fit. The settings on record: Homo sapiens, PaTu 8988t, 72 h, read-out: EC50 [nM]. In short, it runs like this:
as §1

Assay [13] has as its system Suit2-07. Put plainly: cells. Also on record: ATPlite luminescence viability of PDAC cell lines, 11-dose single-agent curves, 4-parameter fit. The settings on record: 72 h, read-out: EC50 [nM]. In short, it runs like this:
as §1

Assay [14] deals with PANC-1. Put plainly: cells. Also on record: Viability of PDAC cell lines, ATPlite luminescence, 11-dose single-agent curve fit. As to conditions: Homo sapiens, PANC-1, 72 h, read-out: EC50 [nM]. In short, it runs like this: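 screening used cells plated at 1000 to 5000 per well one day before treatment. Final DMSO was 0.2%. Each plate held untreated negative-control wells and 5 µM staurosporine positive-control wells.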

Assay [15] has as its system PANC-1. Put plainly: cells. Also on record: ATPlite luminescence viability of PDAC cell lines, 11-dose single-agent curves, 4-parameter fit. The settings on record: Homo sapiens, PANC-1, 72 h, read-out: EC50 [nM]. In short, it runs like this:
as §1

The source of these data is PMC11876601 (Molecular Systems Biology, 2025).

Like-named read-outs stand apart in the source and are kept apart here. Where only a bound is given, the exact number is not on record here.

The EC50 is the concentration giving half of the maximal effect. Consider `O=C(/C=C\n1cnc(-c2cc(C(F)(F)F)cc(C(F)(F)F)c2)n1)NNc1cnccn1` [Selinexor], for which the AUC in assay [1] is listed as less than 60%. Moreover, the EC50 in assay [2] came out at 229 nM; in assay [3], 114 nM; in assay [4], 226 nM; in assay [5], 190 nM; in assay [6], 113 nM; in assay [7], 97 nM. Further, the concentration giving a half-maximal response (EC50) was found to be 37.7 nM in [8]; 1200 nM in assay [9]; 190 nM in assay [10]; 64.2 nM in [11]; 116 nM in [12]; 61 nM in [13]. Also, in [14], the EC50 worked out at 182 nM.
On to `C1=N/C2=N/c3ccc(OCCN4CCCC4)c(c3)COC/C=C/COCc3cccc(c3)C(=C1)N2` [Pacritinib], for which the EC50 in [2] is 529 nM; in assay [3], 1190 nM; in [4], 2210 nM; in [5], 1610 nM; in assay [6] it was 2100 nM; in assay [7], 1280 nM. Moreover, the EC50 in assay [8] is 1340 nM; in [9] it was 2500 nM; in assay [10], 475 nM; in assay [15] it was 1780 nM; in [11] it was 971 nM; in assay [12], 477 nM. The EC50 in assay [13] was 654 nM.
As for `CN(C)C/C=C/C(=O)Nc1cc2c(Nc3ccc(F)c(Cl)c3)ncnc2cc1O[C@H]1CCOC1` [Afatinib], the AUC in assay [1] is less than 60%. For the same molecule, the EC50 in assay [2] was more than 10000 nM; in assay [3], 6420 nM; in assay [4], 4990 nM; in [5] it was 1.6 nM; in assay [6], 1.59 nM; in [7], more than 10000 nM. Further, the EC50 in assay [8] is 22.8 nM; in assay [9], more than 10000 nM; in assay [10] it was 1700 nM; in [15], 6660 nM; in [11], more than 10000 nM; in [12], 2740 nM. Besides, in assay [13], the EC50 turned out to be 9950 nM.
With `CCOc1cc2ncc(C#N)c(Nc3ccc(OCc4ccccn4)c(Cl)c3)c2cc1NC(=O)/C=C/CN(C)C` [Neratinib], the AUC in assay [1] was less than 60%. In addition, the EC50 in assay [2] stood at 816 nM; in [3], 1210 nM; in assay [4], 6740 nM; in assay [5], 1280 nM; in assay [6] it was 7080 nM; in assay [7] it was 1320 nM. For the same molecule, the EC50 in assay [8] was 60.8 nM; in assay [9], more than 10000 nM; in assay [10], 863 nM; in assay [11], more than 10000 nM; in assay [12], 835 nM; in assay [13] it was 1400 nM. Moreover, in assay [14], the EC50 worked out at 8210 nM.
`C=CC(=O)Nc1cccc(Nc2nc(Nc3ccc(N4CCN(C(C)=O)CC4)cc3OC)ncc2C(F)(F)F)c1` [Rociletinib]: the concentration for a half-maximal effect (EC50) was 8730 nM in [2]; 4820 nM in assay [3]; 6270 nM in assay [4]; 7270 nM in assay [5]; 6290 nM in assay [6]; 3580 nM in [7]. Further, the EC50 in [8] is 3460 nM; in assay [9] it was more than 10000 nM; in assay [10], 2370 nM; in assay [15] it was 7120 nM; in assay [11] it was 2080 nM; in assay [12], 4940 nM. In addition, in assay [13], the EC50 amounted to 2750 nM.
Consider `CC(=O)c1cc2c(o1)C(=O)c1ccccc1C2=O` [Napabucasin], for which the EC50 in [2] came out at 644 nM; in assay [3] it was 493 nM; in assay [4], 6090 nM; in [5] it was 6740 nM; in assay [6], 5300 nM; in [7] it was 322 nM. The EC50 in [8] came out at 390 nM; in assay [9], 1650 nM; in assay [10], 176 nM; in assay [15], 1840 nM; in assay [11] it was 588 nM; in assay [12], 220 nM. Further, in assay [13], the EC50 is more than 10000 nM.
For the molecule `COc1cc(Nc2c(C#N)cnc3cc(OCCCN4CCN(C)CC4)c(OC)cc23)c(Cl)cc1Cl` [Bosutinib], the EC50 in assay [2] is 5990 nM; in assay [3], 2170 nM; in assay [4], 6130 nM; in [5], 5090 nM; in assay [6] it was 2910 nM; in assay [7], 3030 nM. Besides, the EC50 in [8] is 2140 nM; in assay [9] it was more than 10000 nM; in assay [10], more than 10000 nM; in [15] it was more than 10000 nM; in assay [11] it was 4490 nM; in assay [12], more than 10000 nM. The EC50 in assay [13] was 2330 nM.
On to `C[C@@H]1CN(C(=O)c2ccc(NC(=O)c3cc(O[C@H](C)c4c(Cl)ccc(F)c4Cl)c(N)nn3)cc2)C[C@H](C)N1` [Ensartinib], for which the concentration giving a half-maximal response (EC50) is 5190 nM in assay [2]; 7520 nM in [3]; 1990 nM in assay [4]; 2870 nM in assay [5]; 2960 nM in assay [6]; 3600 nM in [7]. Besides, the EC50 in assay [8] is 4130 nM; in [9], 2630 nM; in assay [10], 791 nM; in assay [15], more than 10000 nM; in assay [11] it was 4440 nM; in assay [12] it was more than 10000 nM. For the same molecule, the EC50 in [13] is 2000 nM.
As for `Cc1ccc(C(=O)OCc2ccc([C@@H](CN)C(=O)Nc3ccc4cnccc4c3)cc2)c(C)c1` [Netarsudil], the EC50 in assay [2] is 6090 nM; in assay [3], 4970 nM; in assay [4] it was more than 10000 nM; in [5], 5250 nM; in [6], 1590 nM; in assay [7], 5930 nM. The concentration giving a half-maximal response (EC50) in [8] was more than 10000 nM; in assay [9], 5200 nM; in [10] it was 3630 nM; in assay [15], 10000 nM; in assay [11], more than 10000 nM; in assay [12], 4320 nM. The 50% effective concentration (EC50) in [13] is more than 10000 nM.
Consider `COc1cc2ncnc(Nc3ccc(F)c(Cl)c3)c2cc1NC(=O)/C=C/CN1CCCCC1` [Dacomitinib], for which the AUC in [1] is given as less than 60%. Moreover, the 50% effective concentration (EC50) in [2] was more than 10000 nM; in assay [3], more than 10000 nM; in assay [4], 10300 nM; in assay [5], 909 nM; in [6], 2440 nM; in assay [7], 3270 nM. The EC50 in [8] is 46.5 nM; in assay [9], more than 10000 nM; in assay [10] it was 2210 nM; in [15], 3920 nM; in assay [11], 3850 nM; in assay [12], 2200 nM. The EC50 in assay [13] amounted to 1730 nM.
